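1) Cells in 96-well plates. 2) Compound, 48 h, 5 concentrations. 3) Linear interpolation between surrounding doses. 4) Unreached endpoint = highest concentration. The concentration for 50% growth inhibition is given as GI50.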 Calls of active or inactive are those of the source. No stated cut-off is given here; in the data, active = GI50 up to about 1.1 µM and inactive = higher.
What was measured:
Experiment in all cases: inhibition of tumour cell growth, NCI panel, 48 h
M14 = tested on: M14
NCI-H460 = tested on: NCI-H460
SK-OV-3 = tested on: SK-OV-3
SR = tested on: SR
SF-268 = tested on: SF-268
SK-MEL-5 = tested on: SK-MEL-5
UACC-62 = tested on: UACC-62
NCI-H23 = tested on: NCI-H23
ACHN = tested on: ACHN
IGROV-1 = tested on: IGROV-1
A549 = tested on: A549
RPMI-8226 = tested on: RPMI-8226
K562 = tested on: K562
KM12 = tested on: KM12
OVCAR-3 = tested on: OVCAR-3
U-251 = tested on: U-251
SN12C = tested on: SN12C
MOLT-4 = tested on: MOLT-4
A498 = tested on: A498

SMILES | GI50 (M14) | GI50 (NCI-H460) | GI50 (SK-OV-3) | GI50 (SR) | GI50 (SF-268) | GI50 (SK-MEL-5) | GI50 (UACC-62) | GI50 (NCI-H23) | GI50 (ACHN) | GI50 (IGROV-1) | GI50 (A549) | GI50 (RPMI-8226) | GI50 (K562) | GI50 (KM12) | GI50 (OVCAR-3) | GI50 (U-251) | GI50 (SN12C) | GI50 (MOLT-4) | GI50 (A498)
FC(F)(F)c1nc(-c2ccccc2Cl)[nH]c1C(F)(F)F | 1.12 µM (inactive) | 0.859 µM (active) | 0.841 µM (active) | 0.456 µM (active) | 1.23 µM (inactive) | 0.348 µM (active) | 0.766 µM (active) | 0.687 µM (active) | 0.841 µM (active) | 1.15 µM (inactive) | 0.7 µM (active) | 2.66 µM (inactive) | 1.03 µM (active) | 0.975 µM (active) | 0.223 µM (active) | 0.318 µM (active) | 0.705 µM (active) | 0.991 µM (active) | 
CC#CC(O)(C(=O)OC1CCC2CCC1N2C)C1CCCC1 (centres undefined) | > 100 µM (inactive) |  | > 100 µM (inactive) | > 100 µM (inactive) | > 100 µM (inactive) | > 100 µM (inactive) | > 100 µM (inactive) | > 100 µM (inactive) | > 10 µM (inactive) | > 100 µM (inactive) | > 100 µM (inactive) | > 100 µM (inactive) |  | > 100 µM (inactive) | > 100 µM (inactive) | > 10 µM (inactive) | > 100 µM (inactive) | > 100 µM (inactive) | 
O=C(/C(=N/Nc1cn[nH]c(=O)c1Cl)c1ccccc1)c1ccccc1 | 46.8 µM (inactive) |  | 39.5 µM (inactive) |  |  | 28.2 µM (inactive) | 16 µM (inactive) | 22.4 µM (inactive) | 57.9 µM (inactive) | 18.9 µM (inactive) | 18.3 µM (inactive) | 24.6 µM (inactive) | 24.5 µM (inactive) | 12.8 µM (inactive) | 18 µM (inactive) | 26.9 µM (inactive) | 27.4 µM (inactive) | 23.2 µM (inactive) | 14.7 µM (inactive)
O=C1c2ccccc2C(=O)C1C(c1ccc([N+](=O)[O-])cc1)C1C(=O)c2ccccc2C1=O | 55.7 µM (inactive) | > 100 µM (inactive) | > 100 µM (inactive) | 28.2 µM (inactive) | 24.9 µM (inactive) | > 100 µM (inactive) | 32.6 µM (inactive) | 34.9 µM (inactive) | > 100 µM (inactive) |  | > 100 µM (inactive) | 54.5 µM (inactive) | > 100 µM (inactive) | 90.8 µM (inactive) | 18.5 µM (inactive) | 30.3 µM (inactive) | 36.6 µM (inactive) | 36.9 µM (inactive) | 
COC(=O)CCc1ccc2c(c1)CC1(C2)Cc2ccc(CCC(=O)OC)cc2C1 | > 100 µM (inactive) |  | > 100 µM (inactive) | 29.4 µM (inactive) |  | 24 µM (inactive) | > 100 µM (inactive) | 44.7 µM (inactive) | > 100 µM (inactive) | 75.2 µM (inactive) | > 100 µM (inactive) | 28.4 µM (inactive) | > 100 µM (inactive) | > 100 µM (inactive) | 77.4 µM (inactive) | 40.1 µM (inactive) | 68.5 µM (inactive) | 29.6 µM (inactive) | > 100 µM (inactive)
O=c1nc(NC(c2ccccc2)(c2ccccc2)c2ccccc2)ccn1CCNCCn1ccc(NC(c2ccccc2)(c2ccccc2)c2ccccc2)nc1=O | 18.3 µM (inactive) | 11.8 µM (inactive) | 19.6 µM (inactive) |  | 4.84 µM (inactive) | 5.48 µM (inactive) | 4.42 µM (inactive) | 12.5 µM (inactive) | 40.6 µM (inactive) | 5.15 µM (inactive) | 26.2 µM (inactive) | 2.55 µM (inactive) | 3.46 µM (inactive) | 3.44 µM (inactive) | 11.9 µM (inactive) | 4.33 µM (inactive) | 12.4 µM (inactive) |  | 27 µM (inactive)
CC1CC2C(=O)N(c3ccccc3)C(=O)C2c2c1c1ccccc1n2Cc1ccccc1 (centres undefined) | > 100 µM (inactive) | > 100 µM (inactive) | > 100 µM (inactive) | 27.2 µM (inactive) | > 100 µM (inactive) | > 100 µM (inactive) | > 100 µM (inactive) |  | 39.1 µM (inactive) | > 100 µM (inactive) | 32.1 µM (inactive) | > 100 µM (inactive) | 14.5 µM (inactive) | 7.52 µM (inactive) | > 100 µM (inactive) |  | > 100 µM (inactive) | 58.5 µM (inactive) | 
C1=C(c2ccccc2)CN(c2ccccc2)OC1 | 83.8 µM (inactive) | > 100 µM (inactive) | > 100 µM (inactive) | 55.3 µM (inactive) | 79.3 µM (inactive) |  | 67.3 µM (inactive) | 89.7 µM (inactive) | 63.2 µM (inactive) | > 100 µM (inactive) | 85.9 µM (inactive) | 44.8 µM (inactive) | 77.4 µM (inactive) | > 100 µM (inactive) | > 100 µM (inactive) | > 100 µM (inactive) | > 100 µM (inactive) | 74.5 µM (inactive) | 
CCOC(=O)N1CCC(=O)C(CNC23CC4CC(CC(C4)C2)C3)C1 (centres undefined) |  | > 100 µM (inactive) | > 100 µM (inactive) | 21.7 µM (inactive) | > 100 µM (inactive) | 80.2 µM (inactive) | > 100 µM (inactive) | 61.4 µM (inactive) | 17.5 µM (inactive) |  | > 100 µM (inactive) |  | 13.1 µM (inactive) | > 100 µM (inactive) |  | > 100 µM (inactive) | > 100 µM (inactive) | 13.9 µM (inactive) | > 100 µM (inactive)
CCOC(=O)/C(Br)=C1\OC(=O)c2ccccc2-c2ccccc21 | 40.4 µM (inactive) |  | 34 µM (inactive) | 22 µM (inactive) | 43.8 µM (inactive) | 37.1 µM (inactive) | 44.4 µM (inactive) | 57.8 µM (inactive) | 52.6 µM (inactive) | 63.5 µM (inactive) | 40.3 µM (inactive) | 27.9 µM (inactive) | 21.1 µM (inactive) | 34.7 µM (inactive) | 37.4 µM (inactive) | 38.5 µM (inactive) | 37.4 µM (inactive) | 25.9 µM (inactive) | 
O=[N+]([O-])c1ccc(N2C[N+](c3ccccc3)=NC(c3ccccc3)=N2)cc1 | 58.1 µM (inactive) | 39.4 µM (inactive) | 48.9 µM (inactive) | 37.8 µM (inactive) | 29.4 µM (inactive) | 29 µM (inactive) | 26.2 µM (inactive) | 34 µM (inactive) | 19.3 µM (inactive) | 41.2 µM (inactive) | 34.6 µM (inactive) | 39.3 µM (inactive) | 27 µM (inactive) | 29.4 µM (inactive) | 32.2 µM (inactive) | 32.2 µM (inactive) | 46.3 µM (inactive) | 43.5 µM (inactive) | 
NNC(=O)Nc1cccnc1 | > 100 µM (inactive) |  | > 100 µM (inactive) |  |  | > 100 µM (inactive) | > 100 µM (inactive) | > 100 µM (inactive) | > 100 µM (inactive) | > 100 µM (inactive) | > 100 µM (inactive) | > 100 µM (inactive) | > 100 µM (inactive) | > 100 µM (inactive) | > 100 µM (inactive) | > 100 µM (inactive) | > 100 µM (inactive) | > 10 µM (inactive) | > 100 µM (inactive)
COc1ccc(OCC(=O)O)c2c1CCC(C(C)C)C2=O (centres undefined) | > 100 µM (inactive) | > 100 µM (inactive) | > 100 µM (inactive) |  |  | > 100 µM (inactive) | > 100 µM (inactive) | > 100 µM (inactive) | > 100 µM (inactive) | > 100 µM (inactive) | > 100 µM (inactive) | > 100 µM (inactive) | > 100 µM (inactive) | > 100 µM (inactive) | > 100 µM (inactive) | > 100 µM (inactive) |  | > 100 µM (inactive) | > 100 µM (inactive)
CC(=O)OCC1OC(OC2CC3C(C)(C)C(OC(C)=O)CC[C@]3(C)C3CCC45CC4(CC[C@H]5C(C)CC(O)[C@@H](O)C(C)(C)O)[C@]23C)C(O)C(O)C1O (some centres undefined) | 6.95 µM (inactive) | 8.95 µM (inactive) | 5.83 µM (inactive) |  | 8.11 µM (inactive) | 7.13 µM (inactive) | 6.25 µM (inactive) | 8.53 µM (inactive) | 7.98 µM (inactive) | 7.36 µM (inactive) | 8.02 µM (inactive) | 0.173 µM (active) | 5.55 µM (inactive) | 7.85 µM (inactive) | 7.19 µM (inactive) | 6.28 µM (inactive) | 7.05 µM (inactive) | 2.36 µM (inactive) | 7 µM (inactive)
Cc1nc2ccccc2c(=O)[nH]1 | > 100 µM (inactive) | > 100 µM (inactive) | > 100 µM (inactive) |  | > 100 µM (inactive) | > 100 µM (inactive) | > 100 µM (inactive) | > 100 µM (inactive) | > 100 µM (inactive) | > 100 µM (inactive) | > 100 µM (inactive) | > 100 µM (inactive) | > 100 µM (inactive) | > 100 µM (inactive) | > 100 µM (inactive) | > 100 µM (inactive) | > 100 µM (inactive) | > 100 µM (inactive) | > 100 µM (inactive)
CC(=O)OC(/C=C1/C=CC(=O)O1)COC(=O)c1ccccc1 (centres undefined) [ACETYLMELODORINOL] | > 31.2 µM (inactive) | > 31.2 µM (inactive) | > 31.2 µM (inactive) |  | > 31.2 µM (inactive) | > 31.2 µM (inactive) | > 31.2 µM (inactive) | > 31.2 µM (inactive) | > 31.2 µM (inactive) | > 31.2 µM (inactive) | > 31.2 µM (inactive) | > 31.2 µM (inactive) | 10.5 µM (inactive) | > 31.2 µM (inactive) | > 31.2 µM (inactive) | > 31.2 µM (inactive) | > 31.2 µM (inactive) |  | > 31.2 µM (inactive)

— ChEMBL document CHEMBL1201862, “PubChem BioAssay data set” (2004)
